# Results reported in paper PMC7026418, “The kinase polypharmacology landscape of clinical PARP inhibitors” (Scientific Reports, 2020).
# Like-named read-outs stand apart in the source and are kept apart here.
# Columns and labels:
# Assay in all cases: biochemical
# Design in all cases: DiscoveRx KINOMEscan active site-directed competition binding; percent of control kinase bound to immobilised ligand
# [1] = target: T1, EPHA6 (Homo sapiens, UniProt Q9UF33)
# T1 sequence (Q9UF33 1-1036): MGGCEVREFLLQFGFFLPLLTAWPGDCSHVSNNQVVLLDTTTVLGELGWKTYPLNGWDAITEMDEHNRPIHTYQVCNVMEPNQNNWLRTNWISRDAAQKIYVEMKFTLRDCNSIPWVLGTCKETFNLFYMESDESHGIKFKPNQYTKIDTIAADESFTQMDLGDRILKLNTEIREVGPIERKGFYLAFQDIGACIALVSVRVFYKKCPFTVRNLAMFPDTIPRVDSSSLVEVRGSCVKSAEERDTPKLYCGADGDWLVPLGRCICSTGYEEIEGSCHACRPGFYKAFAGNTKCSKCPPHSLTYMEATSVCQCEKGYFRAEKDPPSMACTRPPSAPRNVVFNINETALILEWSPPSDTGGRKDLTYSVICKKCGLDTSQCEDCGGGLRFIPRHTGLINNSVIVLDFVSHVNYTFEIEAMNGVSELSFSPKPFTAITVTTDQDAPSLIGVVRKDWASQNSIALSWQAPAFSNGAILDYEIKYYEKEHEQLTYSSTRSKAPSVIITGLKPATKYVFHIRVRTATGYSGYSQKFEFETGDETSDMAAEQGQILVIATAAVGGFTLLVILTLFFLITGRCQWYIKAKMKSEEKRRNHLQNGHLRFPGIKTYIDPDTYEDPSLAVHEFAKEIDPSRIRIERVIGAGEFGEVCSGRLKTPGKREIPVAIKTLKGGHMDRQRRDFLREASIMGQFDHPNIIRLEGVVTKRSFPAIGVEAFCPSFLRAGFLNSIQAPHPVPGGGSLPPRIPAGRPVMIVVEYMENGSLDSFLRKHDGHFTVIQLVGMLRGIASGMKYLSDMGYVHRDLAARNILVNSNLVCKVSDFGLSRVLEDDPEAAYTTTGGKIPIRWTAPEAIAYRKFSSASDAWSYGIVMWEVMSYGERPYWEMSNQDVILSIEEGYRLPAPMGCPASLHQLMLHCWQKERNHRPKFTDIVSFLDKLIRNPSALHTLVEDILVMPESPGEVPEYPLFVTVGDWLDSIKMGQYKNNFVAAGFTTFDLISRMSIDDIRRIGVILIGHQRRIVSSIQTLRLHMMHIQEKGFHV
# [2] = target: T2, EPHB6 (Homo sapiens, UniProt O15197)
# T2 sequence (O15197 1-1021): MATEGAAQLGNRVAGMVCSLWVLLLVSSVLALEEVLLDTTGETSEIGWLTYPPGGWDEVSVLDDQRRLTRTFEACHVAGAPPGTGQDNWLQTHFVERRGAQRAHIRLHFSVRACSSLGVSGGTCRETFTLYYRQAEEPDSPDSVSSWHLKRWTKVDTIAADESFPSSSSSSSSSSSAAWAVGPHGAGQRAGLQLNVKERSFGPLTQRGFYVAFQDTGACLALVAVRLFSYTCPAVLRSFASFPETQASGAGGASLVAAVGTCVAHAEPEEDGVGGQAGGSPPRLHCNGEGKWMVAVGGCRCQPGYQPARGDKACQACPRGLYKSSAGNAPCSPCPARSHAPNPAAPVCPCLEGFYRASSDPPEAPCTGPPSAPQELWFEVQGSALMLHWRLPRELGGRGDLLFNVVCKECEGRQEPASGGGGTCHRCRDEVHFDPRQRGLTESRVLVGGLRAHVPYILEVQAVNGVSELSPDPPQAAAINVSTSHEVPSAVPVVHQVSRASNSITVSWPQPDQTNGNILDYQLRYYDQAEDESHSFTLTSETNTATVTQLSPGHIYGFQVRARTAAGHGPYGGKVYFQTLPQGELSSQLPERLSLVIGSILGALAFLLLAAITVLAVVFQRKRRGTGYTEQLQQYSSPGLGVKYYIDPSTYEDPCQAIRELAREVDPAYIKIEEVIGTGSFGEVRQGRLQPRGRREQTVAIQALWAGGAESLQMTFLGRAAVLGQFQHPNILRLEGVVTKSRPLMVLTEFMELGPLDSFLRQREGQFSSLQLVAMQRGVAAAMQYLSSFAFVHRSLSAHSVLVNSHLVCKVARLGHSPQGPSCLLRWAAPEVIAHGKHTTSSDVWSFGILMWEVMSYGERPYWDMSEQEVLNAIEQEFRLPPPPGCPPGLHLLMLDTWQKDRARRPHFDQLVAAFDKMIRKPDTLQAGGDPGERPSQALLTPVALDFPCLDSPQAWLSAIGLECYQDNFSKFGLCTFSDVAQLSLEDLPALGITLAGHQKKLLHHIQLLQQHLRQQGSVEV
# [3] = target: T3, HIPK4 (Homo sapiens, UniProt Q8NE63)
# T3 sequence (Q8NE63 1-616): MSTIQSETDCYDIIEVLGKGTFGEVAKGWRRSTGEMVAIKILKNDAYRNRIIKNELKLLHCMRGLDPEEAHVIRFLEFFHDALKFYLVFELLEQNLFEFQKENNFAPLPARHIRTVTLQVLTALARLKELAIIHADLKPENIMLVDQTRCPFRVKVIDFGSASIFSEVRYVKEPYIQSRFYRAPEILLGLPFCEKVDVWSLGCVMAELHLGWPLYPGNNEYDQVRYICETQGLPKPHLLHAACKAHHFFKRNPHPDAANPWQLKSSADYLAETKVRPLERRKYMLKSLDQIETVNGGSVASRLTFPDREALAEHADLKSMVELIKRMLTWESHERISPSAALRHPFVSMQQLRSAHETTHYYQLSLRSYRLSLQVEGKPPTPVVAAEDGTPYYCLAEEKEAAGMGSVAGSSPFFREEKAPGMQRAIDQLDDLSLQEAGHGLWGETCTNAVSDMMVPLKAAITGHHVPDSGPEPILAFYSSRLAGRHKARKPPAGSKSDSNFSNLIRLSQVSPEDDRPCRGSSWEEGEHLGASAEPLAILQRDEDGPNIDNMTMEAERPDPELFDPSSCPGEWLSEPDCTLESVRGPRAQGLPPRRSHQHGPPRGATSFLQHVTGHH
# [4] = target: T4, JAK1(JH2domain-pseudokinase) (Homo sapiens, UniProt P23458)
# T4 construct: JH2domain-pseudokinase
# [5] = target: T5, NIM1 (Homo sapiens, UniProt Q8IY84)
# T5 construct: gene NIM1K
# [6] = read-out: Talazoparib (BMN 673) / %Ctrl @ 10000nM
# [7] = read-out: Olaparib / %Ctrl @ 10000nM
# [8] = read-out: Niraparib (MK-4827) / %Ctrl @ 10000nM
# [9] = read-out: Rucaparib / %Ctrl @ 10000nM, binding competition, % of control
# T4 sequence (P23458 whole entry): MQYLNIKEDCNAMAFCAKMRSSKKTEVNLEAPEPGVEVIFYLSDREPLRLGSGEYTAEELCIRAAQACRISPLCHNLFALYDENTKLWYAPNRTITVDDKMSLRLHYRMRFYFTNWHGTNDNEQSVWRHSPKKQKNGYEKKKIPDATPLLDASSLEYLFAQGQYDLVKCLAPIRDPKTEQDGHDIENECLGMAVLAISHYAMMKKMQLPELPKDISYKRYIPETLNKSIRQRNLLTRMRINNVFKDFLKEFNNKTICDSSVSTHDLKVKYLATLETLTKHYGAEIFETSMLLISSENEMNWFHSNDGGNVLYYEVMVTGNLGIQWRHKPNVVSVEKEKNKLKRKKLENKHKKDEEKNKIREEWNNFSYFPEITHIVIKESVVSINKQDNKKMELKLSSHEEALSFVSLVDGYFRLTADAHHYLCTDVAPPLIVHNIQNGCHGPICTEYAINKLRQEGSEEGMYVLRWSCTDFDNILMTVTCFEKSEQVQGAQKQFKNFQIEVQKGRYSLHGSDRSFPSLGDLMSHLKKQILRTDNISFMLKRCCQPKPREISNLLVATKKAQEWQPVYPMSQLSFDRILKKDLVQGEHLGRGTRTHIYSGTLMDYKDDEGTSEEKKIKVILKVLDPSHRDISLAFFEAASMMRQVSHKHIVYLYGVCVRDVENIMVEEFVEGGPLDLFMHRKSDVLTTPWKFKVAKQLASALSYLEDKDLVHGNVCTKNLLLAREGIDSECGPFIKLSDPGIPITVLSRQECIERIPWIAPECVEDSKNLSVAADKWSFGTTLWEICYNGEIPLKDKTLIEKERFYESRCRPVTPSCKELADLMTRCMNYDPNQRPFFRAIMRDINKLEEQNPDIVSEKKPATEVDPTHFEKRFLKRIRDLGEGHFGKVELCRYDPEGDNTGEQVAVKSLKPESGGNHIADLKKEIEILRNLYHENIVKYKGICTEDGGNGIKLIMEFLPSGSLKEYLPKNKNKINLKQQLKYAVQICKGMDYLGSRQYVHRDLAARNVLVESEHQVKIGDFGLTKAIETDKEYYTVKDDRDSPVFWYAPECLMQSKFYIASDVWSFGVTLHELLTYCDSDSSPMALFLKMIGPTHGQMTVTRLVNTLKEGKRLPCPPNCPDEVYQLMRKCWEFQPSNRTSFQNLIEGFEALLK
# T5 sequence (Q8IY84 whole entry): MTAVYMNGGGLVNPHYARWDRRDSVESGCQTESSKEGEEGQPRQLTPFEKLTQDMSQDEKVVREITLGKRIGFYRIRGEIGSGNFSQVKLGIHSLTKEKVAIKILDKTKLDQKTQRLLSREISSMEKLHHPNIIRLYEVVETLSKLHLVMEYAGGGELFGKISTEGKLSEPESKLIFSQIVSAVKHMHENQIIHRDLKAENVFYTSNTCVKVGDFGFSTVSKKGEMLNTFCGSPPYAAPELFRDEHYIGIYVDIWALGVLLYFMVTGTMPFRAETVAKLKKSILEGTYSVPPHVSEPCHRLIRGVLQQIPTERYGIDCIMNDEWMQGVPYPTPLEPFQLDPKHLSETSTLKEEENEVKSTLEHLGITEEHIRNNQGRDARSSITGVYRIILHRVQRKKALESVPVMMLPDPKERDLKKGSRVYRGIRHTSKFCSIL
smiles,measurement,setting,value
Cn1ncnc1[C@H]1c2n[nH]c(=O)c3cc(F)cc(c23)N[C@@H]1c1ccc(F)cc1 [Talazoparib],percent of control binding at 10 µM,[1]; [6],100%
same,percent of control binding at 10 µM,[2]; [6],84%
same,percent of control binding at 10 µM,[3]; [6],100%
same,percent of control binding at 10 µM,[4]; [6],73%
same,percent of control binding at 10 µM,[5]; [6],79%
O=C(c1cc(Cc2n[nH]c(=O)c3ccccc23)ccc1F)N1CCN(C(=O)C2CC2)CC1 [Olaparib],percent of control binding at 10 µM,[1]; [7],94%
same,percent of control binding at 10 µM,[2]; [7],81%
same,percent of control binding at 10 µM,[3]; [7],100%
same,percent of control binding at 10 µM,[4]; [7],91%
same,percent of control binding at 10 µM,[5]; [7],83%
NC(=O)c1cccc2cn(-c3ccc([C@@H]4CCCNC4)cc3)nc12 [Niraparib],percent of control binding at 10 µM,[1]; [8],89%
same,percent of control binding at 10 µM,[2]; [8],34%
same,percent of control binding at 10 µM,[3]; [8],80%
same,percent of control binding at 10 µM,[5]; [8],100%
CNCc1ccc(-c2[nH]c3cc(F)cc4c3c2CCNC4=O)cc1 [Rucaparib],percent of control binding at 10 µM,[1]; [9],99%
same,percent of control binding at 10 µM,[2]; [9],50%
same,percent of control binding at 10 µM,[3]; [9],51%
same,percent of control binding at 10 µM,[4]; [9],0.8%
same,percent of control binding at 10 µM,[5]; [9],71%
